Assay results published in DBAASP.
In brackets after ≈: the same amount, converted by molar mass.

Tests used:
Experiment in all cases: ≥ marks a high value that may be exact or a test limit, other limits are often not marked, values filed in µg/mL are converted to µM
[1] = tested on: Escherichia coli K-12
[2] = tested on: Pseudomonas aeruginosa PAO1
[3] = tested on: Bacillus subtilis 168
[4] = tested on: Staphylococcus aureus USA 300
[5] = tested on: Staphylococcus epidermidis
[6] = tested on: Streptococcus uberis
[7] = tested on: Bacillus cereus
[8] = tested on: Staphylococcus aureus
[9] = tested on: Leuconostoc lactis
[10] = tested on: Listeria innocua
[11] = tested on: Escherichia coli
[12] = tested on: Micrococcus luteus
[13] = tested on: Pasteurella multocida
[14] = tested on: Staphylococcus aureus ATCC 6538P
[15] = tested on: Shigella dysenteriae ATCC 9752
[16] = tested on: Staphylococcus epidermidis ATCC 12228
[17] = tested on: Pseudomonas aeruginosa ATCC 27853
[18] = tested on: Salmonella enterica subsp. enterica serovar Typhimurium ATCC 14028
[19] = tested on: Bacillus subtilis ATCC 6633
[20] = tested on: Escherichia coli ATCC 25922
[21] = tested on: Micrococcus luteus ATCC 10240
[22] = tested on: Klebsiella pneumoniae ATCC 10031

Row | Compound | MIC [5] [µM] | MIC [6] [µM] | MIC [7] [µM] | MIC [8] [µM] | MIC [9] [µM] | MIC [10] [µM] | MIC [11] [µM] | MIC [12] [µM] | MIC [13] [µM] | MIC [1] [µM] | also measured
1 | CC[C@H](C)[C@H](NC(=O)[C@H](C)NC(=O)[C@H](CCC(N)=O)NC(=O)[C@@H](NC(=O)[C@@H](NC(=O)[C@H](CCCN=C(N)N)NC(=O)[C@H](CCCCN)NC(=O)[C@H](Cc1ccccc1)NC(=O)CN)[C@@H](C)CC)C(C)C)C(=O)N[C@@H](CCCCN)C(=O)N[C@@H](CC(=O)O)C(=O)N[C@@H](Cc1ccccc1)C(=O)N[C@@H](CC(C)C)C(=O)N[C@@H](CCCN=C(N)N)C(=O)N[C@@H](CC(N)=O)C(=O)N[C@@H](CC(C)C)C(=O)N[C@H](C(N)=O)C(C)C [GFKRIVQAIKDFLRNLV] | – | – | – | – | – | – | – | – | – | ≥ 60 | –
2 | CC[C@H](C)[C@H](NC(=O)[C@@H](NC(=O)[C@H](CCCCN)NC(=O)CNC(=O)[C@@H](NC(=O)[C@@H](NC(=O)[C@H](CO)NC(=O)[C@@H](NC(=O)[C@@H](NC(=O)[C@@H]1CCCN1C(=O)[C@@H](NC(=O)[C@@H](NC(=O)CN)[C@@H](C)CC)[C@@H](C)CC)[C@@H](C)CC)[C@@H](C)CC)[C@@H](C)CC)[C@@H](C)CC)[C@@H](C)CC)C(N)=O [GIIPIISIIGKII] | – | – | – | – | – | – | – | – | – | ≥ 34 | MIC [2]: > 30 µM; MIC [3]: 30 µM (≈ 40.5 µg/mL); MIC [4]: ≥ 34 µM
3 | CC[C@H](C)[C@H](NC(=O)[C@@H](NC(=O)[C@H](CO)NC(=O)[C@H](C)NC(=O)[C@@H](NC(=O)[C@H](CCCCN)NC(=O)[C@H](CCCCN)NC(=O)[C@@H](NC(=O)[C@@H](NC(=O)[C@H](CC(=O)O)NC(=O)[C@H](C)NC(=O)[C@H](CC(C)C)NC(=O)CN)C(C)C)[C@@H](C)CC)C(C)C)C(C)C)C(=O)NCC(=O)NCC(=O)N[C@@H](CC(C)C)C(N)=O [GLADVIKKVASVIGGL] | ≥ 64.9 | ≥ 64.9 | ≥ 32.5 | 64.9 (≈ 99.9 µg/mL) | ≥ 64.9 | ≥ 64.9 | > 64.9 | ≥ 32.5 | ≥ 64.9 | – | –
4 | CC[C@H](C)[C@H](NC(=O)[C@@H](NC(=O)[C@H](C)NC(=O)[C@H](Cc1ccccc1)NC(=O)[C@H](CC(C)C)NC(=O)CN)C(C)C)C(=O)N[C@@H](CCCCN)C(=O)N[C@@H](CCCCN)C(=O)N[C@H](C(=O)N[C@@H](C)C(=O)N[C@@H](CCCCN)C(=O)N[C@H](C(=O)N[C@H](C(=O)N[C@@H](CCCCN)C(=O)N[C@@H](CCCCN)C(=O)N[C@@H](CC(C)C)C(N)=O)[C@@H](C)CC)C(C)C)C(C)C [GLFAVIKKVAKVIKKL] | 6.84 (≈ 12 µg/mL) | 28.5 (≈ 50 µg/mL) | 14.2 (≈ 25 µg/mL) | 14.2 (≈ 25 µg/mL) | 1.71 (≈ 3 µg/mL) | ≥ 57 | > 57 | 14.2 (≈ 25 µg/mL) | ≥ 57 | – | –
5 | CC[C@H](C)[C@H](NC(=O)[C@@H](NC(=O)[C@H](CO)NC(=O)[C@H](C)NC(=O)[C@@H](NC(=O)[C@H](CCCCN)NC(=O)[C@H](C)NC(=O)[C@@H](NC(=O)[C@@H](NC(=O)[C@H](CC(=O)O)NC(=O)[C@H](Cc1ccccc1)NC(=O)[C@H](CC(C)C)NC(=O)CN)C(C)C)[C@@H](C)CC)C(C)C)C(C)C)C(=O)NCC(=O)NCC(=O)N[C@@H](CC(C)C)C(N)=O [GLFDVIAKVASVIGGL] | ≥ 64.1 | ≥ 64.1 | ≥ 64.1 | 64.1 (≈ 99.9 µg/mL) | 16 (≈ 25 µg/mL) | ≥ 64.1 | > 64.1 | ≥ 64.1 | ≥ 64.1 | – | –
6 | CC(C)C[C@H](NC(=O)[C@H](CC(C)C)NC(=O)[C@H](CCCCN)NC(=O)[C@H](CC(C)C)NC(=O)[C@H](CC(C)C)NC(=O)[C@H](Cc1c[nH]c2ccccc12)NC(=O)[C@H](CCCCN)NC(=O)[C@H](CC(C)C)NC(=O)[C@H](CC(C)C)NC(=O)[C@H](CCCCN)NC(=O)[C@H](CC(C)C)NC(=O)[C@@H](N)CC(C)C)C(=O)N[C@@H](CCCCN)C(N)=O [LLKLLKWLLKLLK] | – | – | – | – | – | – | – | – | – | – | MIC [14]: 15.4 µM (≈ 25 µg/mL); MIC [15]: ≥ 123 µM; MIC [16]: 30.8 µM (≈ 50 µg/mL); MIC [17]: > 123 µM; MIC [18]: > 123 µM; MIC [19]: 3.88 µM (≈ 6.3 µg/mL); MIC [20]: > 123 µM; MIC [21]: 3.88 µM (≈ 6.3 µg/mL); MIC [22]: ≥ 123 µM
